Results on eight compounds are retold here after PMC8400042, “Selective DNA Gyrase Inhibitors: Multi-Target in Silico Profiling with 3D-Pharmacophores” (Pharmaceuticals, 2021).

In assay [1] the target is T1, human Hsp90α NTD (Homo sapiens, UniProt P07900).
T1 construct: Production and purification of recombinant Hsp90α NTD have been described previously; made in house
Put plainly: fluorescence-based thermal shift assay (FTSA), binding to Hsp90. The note with it: concentrations up to 100 μM.

The target in assay [2] is T2, human DNA topoisomerase IIα (Homo sapiens, UniProt P11388).
T2 construct: purchased Inspiralis
Put plainly: human DNA topoisomerase IIα DNA relaxation assay (Inspiralis). In kind it is biochemical. The note with it: for IC50: DNA relaxation assay, read-out: Human TopoII IC50; for inhibition of TopoII (in words): concentrations up to 100 μM. The method, then:
Inhibitory activities were determined in an assay from Inspiralis on streptavidin-coated 96-well microtitre plates from Thermo Scientific Pierce. […] After washing off the unbound oligonucleotide, the enzyme assay was performed. […] Reaction solutions were incubated at 37 °C for 30 min. After that, the TF buffer (50 mM NaOAc, 50 mM NaCl, and 50 mM MgCl2, pH 5.0) was added to terminate the enzymatic reaction. After additional incubation for 30 min at RT, during which biotin–oligonucleotide–plasmid triplex was formed, the unbound plasmid was washed off using TF buffer, and Diamond Dye in T10 buffer (10 mM Tris·HCl, 1 mM EDTA, pH 8.0) was added. […] Initial screening was done at 100 or 10 μM concentrations of inhibitors. […] GraphPad Prism 6 software was used to calculate the IC50 values. The results are reported as the average value of three independent measurements.

The target of assay [3] is T1, human Hsp90α NTD. Put plainly: fluorescence-based thermal shift assay (FTSA), binding to Hsp90. The note with it: for Kd: FTSA. How it is done:
Production and purification of recombinant Hsp90α NTD have been described previously. The molecular weight of the protein has been confirmed by high-resolution mass spectrometry, purity by SDS-PAGE, and the concentration was determined by UV-VIS spectrophotometry at 280 nm. The synthesis, chemical structure determination, and purity of compounds 1-7 have been previously described.
Compound binding to Hsp90 was determined by the fluorescence-based thermal shift assay (FTSA) which determines the thermal stability of the free and ligand-bound protein [61, 62, 63]. The stabilization efficiency is directly related to the ligand-binding affinity. The experiments were carried out with Corbett Rotor-Gene 6000 (QIAGEN Rotor-Gene Q) spectrofluorimeter (using excitation 365 ± 20 nm and detection at 460 ± 15 nm). Protein solutions in the presence of various concentrations of a compound were heated from 25 to 95 °C at a rate of 1 °C/min. Protein unfolding was monitored by measuring the fluorescence of 8-anilino-1-naphthalenesulfonate (ANS) dye at added 50 μM concentration. Increasing concentration of a compound shifted the protein denaturation temperature increasingly upwards depending on the binding affinity. Samples contained 5 μM protein, ligand concentration ranging from 0 to 200 μM, […] (pH 7.5) containing […] and 2% DMSO. Protein melting temperatures were determined by fitting the fluorescence curves while the compound dosing curves were simulated as described previously. All experiments were repeated at least twice.

Assay [4] has as its target T3, E. coli DNA gyrase (Escherichia coli, UniProt P0AES6).
T3 construct: purchased Inspiralis
The conditions noted are these: cited from earlier work.

The target in assay [5] is T3, E. coli DNA gyrase. Put plainly: DNA supercoiling assay (Inspiralis). In kind it is biochemical. How it is done: The DNA supercoiling assay from Inspiralis for the determination of IC50 values was performed according to previously reported procedures.
In assay [6] the target is T1, human Hsp90α NTD. The note with it: cited from earlier work.
Assay [7] concerns Hsp90 C-terminal domain (CTD). Details: method as in PMID 10945979, PMID 10655441. The conditions noted are these: cited from earlier work.
A further assay deals with human TopoII. Details: method as in PMID 2537141. The note with it: cited from earlier work.
[8] abbreviates: DNA supercoiling assay, read-out: E. coli DNA gyrase IC50.

Like-named read-outs stand apart in the source and are kept apart here.

T2 sequence (P11388 whole entry): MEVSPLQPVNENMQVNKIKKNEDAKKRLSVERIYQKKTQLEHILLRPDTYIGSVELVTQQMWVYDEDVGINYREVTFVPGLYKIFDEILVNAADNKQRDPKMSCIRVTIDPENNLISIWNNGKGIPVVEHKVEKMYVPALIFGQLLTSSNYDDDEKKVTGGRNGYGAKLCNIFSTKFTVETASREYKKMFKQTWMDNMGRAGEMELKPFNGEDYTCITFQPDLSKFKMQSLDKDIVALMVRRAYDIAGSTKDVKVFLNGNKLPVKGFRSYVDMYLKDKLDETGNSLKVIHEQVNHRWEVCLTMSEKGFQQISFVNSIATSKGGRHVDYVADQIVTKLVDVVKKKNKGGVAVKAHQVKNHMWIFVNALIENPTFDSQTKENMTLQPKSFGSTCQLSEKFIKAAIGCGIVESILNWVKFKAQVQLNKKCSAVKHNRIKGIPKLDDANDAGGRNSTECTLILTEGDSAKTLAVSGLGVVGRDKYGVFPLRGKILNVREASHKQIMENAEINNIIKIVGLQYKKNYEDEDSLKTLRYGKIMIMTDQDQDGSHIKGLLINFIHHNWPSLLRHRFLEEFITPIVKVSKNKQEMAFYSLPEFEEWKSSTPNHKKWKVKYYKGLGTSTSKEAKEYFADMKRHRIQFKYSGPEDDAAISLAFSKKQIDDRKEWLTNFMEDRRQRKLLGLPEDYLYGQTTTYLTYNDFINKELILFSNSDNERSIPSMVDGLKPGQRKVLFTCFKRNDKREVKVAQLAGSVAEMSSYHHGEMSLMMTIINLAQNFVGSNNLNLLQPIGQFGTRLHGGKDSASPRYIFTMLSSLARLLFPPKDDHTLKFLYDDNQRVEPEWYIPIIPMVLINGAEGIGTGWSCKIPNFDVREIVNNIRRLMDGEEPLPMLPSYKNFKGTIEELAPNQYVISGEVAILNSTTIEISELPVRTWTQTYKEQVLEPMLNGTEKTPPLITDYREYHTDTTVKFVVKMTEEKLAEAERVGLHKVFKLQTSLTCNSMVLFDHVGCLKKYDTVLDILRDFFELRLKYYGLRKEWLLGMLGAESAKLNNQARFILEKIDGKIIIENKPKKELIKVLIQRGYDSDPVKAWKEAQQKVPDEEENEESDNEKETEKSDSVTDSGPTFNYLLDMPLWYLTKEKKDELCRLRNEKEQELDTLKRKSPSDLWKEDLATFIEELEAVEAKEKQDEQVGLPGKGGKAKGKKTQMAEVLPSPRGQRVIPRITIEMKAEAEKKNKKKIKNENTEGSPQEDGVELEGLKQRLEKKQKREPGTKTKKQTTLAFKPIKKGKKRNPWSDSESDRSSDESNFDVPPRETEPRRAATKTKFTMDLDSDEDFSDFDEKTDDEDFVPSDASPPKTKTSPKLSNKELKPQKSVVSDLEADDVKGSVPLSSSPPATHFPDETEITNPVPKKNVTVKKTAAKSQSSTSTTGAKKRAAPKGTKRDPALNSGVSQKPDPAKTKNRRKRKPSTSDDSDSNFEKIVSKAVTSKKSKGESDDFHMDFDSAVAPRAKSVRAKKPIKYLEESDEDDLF

In general, IC50 refers to the concentration needed to halve the response being measured. One may read the Kd as a measure of binding affinity in units of concentration. Turning to `O=C(O)C(=O)Nc1ccc2nc(NC(=O)c3cc(Cl)c(Cl)[nH]3)sc2c1` [Compound 1], the “binding to Hsp90α NTD (in words)” value on human Hsp90α NTD [1] is “devoid of activity”. Moreover, in assay [2], the “activity at TopoII in vitro (in words)” value is “inactive”, the IC50 was more than 100 µM and the “inhibition of TopoII (in words)” value is given as “devoid of activity”. Moreover, on human Hsp90α NTD [3], the “activity at Hsp90 in vitro (in words)” value was “inactive” and the Kd is more than 100 µM.

Consider `Cc1[nH]c(C(=O)N[C@H]2CCc3nc(NC(=O)CC(=O)O)sc3C2)c(Br)c1Br` [Compound 2], for which the “binding to Hsp90α NTD (in words)” value on human Hsp90α NTD [1] is recorded as “devoid of activity”. Besides, in assay [2], the “activity at TopoII in vitro (in words)” value is “inactive”, the concentration for half-maximal inhibition (IC50) was more than 100 µM and the “inhibition of TopoII (in words)” value is given as “devoid of activity”. Moreover, the 50% inhibitory concentration (IC50) on E. coli DNA gyrase [4] (DNA supercoiling assay, read-out: Escherichia coli DNA gyrase IC50) is less than 0.1 µM. Moreover, at E. coli DNA gyrase [4] (read-out: E. coli DNA gyrase IC50), the IC50 is 0.02 µM. On human Hsp90α NTD [3], the “activity at Hsp90 in vitro (in words)” value is “inactive” and the equilibrium dissociation constant (Kd) is more than 100 µM.

On to `COc1ccc(-c2snnc2-c2cc(Cl)c(O)cc2O)cc1` [Compound 3], for which, on E. coli DNA gyrase [5], the half-maximal inhibitory concentration (IC50) is more than 100 µM and the “activity at GyrB / DNA gyrase in vitro (in words)” value (“activity at GyrB / DNA gyrase” for short) is reported as “no inhibition”. In assay [2], the “activity at TopoII in vitro (in words)” value was “no inhibition” and the IC50 is more than 100 µM.

Take `CC(C)Cc1cc(-c2nnsc2-c2ccccc2)c(O)cc1O` [Compound 4]: the “activity at GyrB / DNA gyrase” value on E. coli DNA gyrase [5] is “no inhibition”. The concentration for half-maximal inhibition (IC50) (at E. coli DNA gyrase [5] (setting [8]); in assay [2]) was more than 100 µM each time. Moreover, the dissociation constant Kd on human Hsp90α NTD [6] was 0.0066 µM. In addition, the “activity at TopoII in vitro (in words)” value in assay [2] is given as “no inhibition”.

In the case of `O=c1nc(SCc2cc(F)cc(C(F)(F)F)c2)nc(SCc2ccccc2F)[nH]1` [Compound 5], the “activity at GyrB / DNA gyrase” value on E. coli DNA gyrase [5] was “inactive”. Further, the IC50 at E. coli DNA gyrase [5] (setting [8]) was more than 100 µM. Also, at human Hsp90α NTD [3], the “activity at Hsp90 in vitro (in words)” value is “inactive” and the Kd is more than 100 µM.

On to `O=c1nc(SCc2cc(F)cc(C(F)(F)F)c2)nc(SCc2ccc(Cl)cc2)[nH]1` [Compound 6], for which, at E. coli DNA gyrase [5], the “activity at GyrB / DNA gyrase” value is “inactive”. Besides, at E. coli DNA gyrase [5] (setting [8]), the IC50 was more than 100 µM. Also, at human Hsp90α NTD [3], the “activity at Hsp90 in vitro (in words)” value was “inactive” and the dissociation constant (Kd) was more than 100 µM.

With `NS(=O)(=O)c1c(F)c(F)c(SCCO)c(F)c1NC1CCCCCCC1` [Compound 7], the “activity at GyrB / DNA gyrase” value on E. coli DNA gyrase [5] is “inactive”. For the same compound, the IC50 on E. coli DNA gyrase [5] (setting [8]) was more than 100 µM. In assay [2], the “activity at TopoII in vitro (in words)” value was “inactive” and the IC50 is more than 100 µM. On human Hsp90α NTD [3], the “activity at Hsp90 in vitro (in words)” value was “inactive” and the Kd was more than 100 µM.

Consider `CO[C@@H]1[C@@H](OC(N)=O)[C@@H](O)[C@H](Oc2ccc3c(O)c(NC(=O)c4ccc(O)c(CC=C(C)C)c4)c(=O)oc3c2C)OC1(C)C` [novobiocin], for which the “binding to allosteric binding site at Hsp90 CTD (in words)” value in assay [7] is recorded as “weakly bind”. Further, the “inhibition of human TopoII (in words)” value with human TopoII was “inhibit”.
